Literature values, collected in patent US20140199404A1, “METHOD FOR TREATING CANCER BASED ON LEVEL OF A NUCLEOSIDE TRANSPORTER” (ABRAXIS BIOSCIENCE, LLC, priority 2013, published 2014).

Legend:
[1] = test system: locally advanced pancreatic cancer; conditions: patients with locally advanced pancreatic cancer
pancreatic cancer = conditions: Moore et al. 2007

Nc1ccn([C@@H]2O[C@H](CO)[C@@H](O)C2(F)F)c(=O)n1 [gemcitabine]
median overall survival [1]: 5.7 months | median time to disease progression [1]: 2.1 months | median overall survival (pancreatic cancer): 6.0 months | median progression free survival (pancreatic cancer): 3.5 months

O=c1[nH]cc(F)c(=O)[nH]1 [5-FU, 5-fluororuracil]
median overall survival [1]: 4.2 months | median time to disease progression [1]: 0.9 months
